Patent publication US20050130252A1, “Stabilized susceptibility tests of aerobic pathogens” (Wyeth Holdings Corporation, priority 2003, published 2005)
≈ marks a conversion by molar mass, not a printed value. Where two headings read alike, the source gives them in different places.

Tests used:
E. coli ATCC 25922 = assay: Time-kill assay, fresh vs aged Mueller-Hinton broth; format: cell-based, Escherichia coli; details: FIG. 1
Description: Time-kill assays were performed by the broth macrodilution method in accordance with the NCCLS guidelines (NCCLS. 1999. Methods for Determining Bactericidal Activity of Antimicrobial Agents; Approved Guidelines: M26-A, vol. 19. National Committee for Clinical Laboratory Standards, Wayne, Pa.). A starting inoculum of approximately 10^6 CFU/ml and a final concentration of the antibiotic equal to four times the MIC were employed for these assays. Flasks containing 50 ml of MHB II with the appropriate antimicrobial agent were inoculated with […] of the test organism in logarithmic growth phase. Test flasks (250 ml) were incubated with shaking (150 RPM) in a 35° C. water bath. Aliquots were removed for the determination of viable counts at 0, 2, 4, 6 and 24 hours. Serial dilutions were prepared in sterile 0.85% sodium chloride solution. The diluted samples (0.05 ml) were plated onto appropriate agar plates trypticase soy agar (TSA) with a spiral plater (Don Whitley Scientific LTD). The plates were incubated at 35° C. in ambient air for 18-22 hours and the number of colonies were determined on the ProtoCOL plate reader plater (Don Whitley Scientific LTD). Killing curves were constructed by plotting the log10 CFU/ml versus time over 24 hours and the change in bacterial concentration was determined. Data is shown graphically in FIG. 1. Presented in Table 3 are the minimal inhibitory concentration results of the effect of media age, fresh vs. aged and Oxyrase® on the activity of tigecycline.
To further establish this effect, a time kill experiment was performed with E. coli ATCC 25922 in fresh and aged media at […] and 1 μg/ml of tigecycline, which represents 1×, and 4×MIC of this organism determined in aged media. […]

S. aureus ATCC 25923 = assay: Broth microdilution MIC; format: cell-based, Staphylococcus aureus; details: Staphylococcus aureus, ATCC25923, read-out: Minimal Inhibitory Concentration, S. aureus ATCC 25923
Description: (§1) The process for preparing susceptibility test medium are the following steps: • a. Preparing Mueller Hinton Broth II medium by adding 22 grams powdered media to 1.0 liter distilled water; • b. Autoclaving (121° C., 15 psi, 15 minutes) and cooling the medium; • c. Adding Oxyrase® up to about 10% final volume and keeping at 35-37° C. in an incubator for 30 minutes; • d. Adding about 50 μL to each well of a 96 well microtiter plate; • e. Weighing drug and adding broth to drug to bring up to about (standard 128 μg/ml); • f. Adding 50 μL of the drug to the first column of the titer plate; • g. Diluting by two-fold serial diluting across or down the plate. • h. Preparing a Prompt™ inoculum at 10^8 CFU/ml; • i. Diluting inoculum 1:100 in the broth at […] in 9.9 ml (1:100) is 10^6 colony forming units (CFU) forming the adjusted inoculum; • j. Adding 50 μL of the adjusted inoculum to the wells of the microtiter plate; • k. Incubating the plates at 35-37° C. for 18-22 hours; and • l. Reading, with the unaided eye, the MIC.
(§2) The in vitro activities of tigecycline and control antibiotics were determined by the broth microdilution method as recommended by the NCCLS. (National Committee for Clinical Laboratory Standards, 2003. Methods for Dilution Antimicrobial Susceptibility Tests for Bacteria That Grow Aerobically; Approved Standards: M7-A6, Sixth ed, vol. 23., National Committee for Clinical Laboratory Standards Wayne, Pa.) was used for the standard procedures. MBH with 5% lysed horse blood was used for testing S. pneumoniae and Haemophilus Test Medium was used for testing H. influenzae. Oxyrase® (Oxyrase Inc, Mansfield, Ohio) was used according to the manufacturer's instructions by adding 1 ml of Oxyrase® to 50 ml of media. Media age studies were performed by preparing MHB in multiple flasks, then storing the media under various conditions. MICs were usually performed in duplicate on each day of testing. Storage under anaerobic conditions was conducted in an anaerobic chamber (MACS MG 1000, Don Whitley Scientific LTD). The pH of the media was determined by pH meter (Corning 430). A comparison of the in vitro activity of tigecycline by agar and broth dilution methodolgies with and without Oxyrase® against clinical isolates is shown in Table 1.

S. aureus ATCC 29213 = assay: Broth microdilution MIC; format: cell-based, Staphylococcus aureus; details: Staphylococcus aureus
Description: as §1, §2

Compound: CN(C)c1cc(NC(=O)CNC(C)(C)C)c(O)c2c1C[C@H]1C[C@H]3[C@H](N(C)C)C(O)=C(C(N)=O)C(=O)[C@@]3(O)C(O)=C1C2=O [Tigecycline, tigecycline]
- Time kill, growth of E. coli ATCC25922 in aged media (E. coli ATCC 25922; 0.12 μg/ml of tigecycline, aged media): regrowth of the strain after 6 h exposure
- Time kill, growth of E. coli ATCC25922 in fresh media (E. coli ATCC 25922; 0.12 and 1 μg/ml of tigecycline, fresh media): suppressed the growth
- Difference in viable growth, fresh vs aged media (time kill kinetics) (E. coli ATCC 25922; E. coli ATCC 25922): > 3 log10
- MIC (S. aureus ATCC 25923; 2% Oxyrase): 0.06 µg/mL (≈ 0.102 µM)
- MIC (S. aureus ATCC 25923; MHB II + 0.05% Sodium Pyruvate): 0.25 µg/mL
- MIC (S. aureus ATCC 25923; No Oxyrase): 0.25 µg/mL (≈ 0.427 µM)
- MIC (S. aureus ATCC 29213; ATCC29213, 0 h, S. aureus ATCC 29213, Day 0, Pre-prepared media, room temperature, N = 6): 0.25 µg/mL (≈ 0.427 µM)
- MIC (S. aureus ATCC 29213; ATCC29213, 0 h, S. aureus ATCC 29213, Day 0, media Fresh from Powder 2° C., N = 6): 0.12 µg/mL (≈ 0.205 µM)
- MIC (S. aureus ATCC 29213; ATCC29213, 0 h, S. aureus ATCC 29213, Day 0, media Fresh from Powder, room temperature, N = 6): 0.06 to 0.12 µg/mL (≈ 0.102 to 0.205 µM)
- MIC (S. aureus ATCC 29213; ATCC29213, 24 h, S. aureus ATCC 29213, Day 1, Pre-prepared media, room temperature, N = 6): 0.25 µg/mL (≈ 0.427 µM)
- MIC (S. aureus ATCC 29213; ATCC29213, 24 h, S. aureus ATCC 29213, Day 1, media Fresh from Powder 2° C., N = 6): 0.12 µg/mL (≈ 0.205 µM)
- MIC (S. aureus ATCC 29213; ATCC29213, 24 h, S. aureus ATCC 29213, Day 1, media Fresh from Powder, room temperature, N = 6): 0.12 µg/mL (≈ 0.205 µM)
- MIC (S. aureus ATCC 29213; ATCC29213, 168 h, S. aureus ATCC 29213, Day 7, Pre-prepared media, room temperature, N = 6): 0.25 µg/mL (≈ 0.427 µM)
- MIC (S. aureus ATCC 29213; ATCC29213, 168 h, S. aureus ATCC 29213, Day 7, media Fresh from Powder 2° C., N = 6): 0.12 µg/mL (≈ 0.205 µM)
- MIC (S. aureus ATCC 29213; ATCC29213, 168 h, S. aureus ATCC 29213, Day 7, media Fresh from Powder, room temperature, N = 6): 0.25 µg/mL (≈ 0.427 µM)
- MIC (S. aureus ATCC 29213; ATCC29213, 336 h, S. aureus ATCC 29213, Day 14, Pre-prepared media, room temperature, N = 6): 0.25 to 0.5 µg/mL (≈ 0.427 to 0.854 µM)
- MIC (S. aureus ATCC 29213; ATCC29213, 336 h, S. aureus ATCC 29213, Day 14, media Fresh from Powder 2° C., N = 6): 0.25 to 0.5 µg/mL (≈ 0.427 to 0.854 µM)
- MIC (S. aureus ATCC 29213; ATCC29213, 336 h, S. aureus ATCC 29213, Day 14, media Fresh from Powder, room temperature, N = 6): 0.25 to 0.5 µg/mL (≈ 0.427 to 0.854 µM)
- MIC (S. aureus ATCC 29213; ATCC29213, 336 h, read-out: Minimal Inhibitory Concentration, S. aureus ATCC 29213, media Aged Aerobic (2 weeks at RT under room air), N = 4): 0.25 to 0.5 µg/mL (≈ 0.427 to 0.854 µM)
- MIC (S. aureus ATCC 29213; ATCC29213, 504 h, S. aureus ATCC 29213, Day 21, Pre-prepared media, room temperature, N = 6): 0.5 µg/mL (≈ 0.854 µM)
- MIC (S. aureus ATCC 29213; ATCC29213, 504 h, S. aureus ATCC 29213, Day 21, media Fresh from Powder 2° C., N = 6): 0.25 to 0.5 µg/mL (≈ 0.427 to 0.854 µM)
- MIC (S. aureus ATCC 29213; ATCC29213, 504 h, S. aureus ATCC 29213, Day 21, media Fresh from Powder, room temperature, N = 6): 0.25 µg/mL (≈ 0.427 µM)
- MIC (S. aureus ATCC 29213; ATCC29213, 672 h, S. aureus ATCC 29213, Day 28, Pre-prepared media, room temperature, N = 6): 0.25 to 0.5 µg/mL (≈ 0.427 to 0.854 µM)
- MIC (S. aureus ATCC 29213; ATCC29213, 672 h, S. aureus ATCC 29213, Day 28, media Fresh from Powder 2° C., N = 6): 0.25 µg/mL (≈ 0.427 µM)
- MIC (S. aureus ATCC 29213; ATCC29213, 672 h, S. aureus ATCC 29213, Day 28, media Fresh from Powder, room temperature, N = 6): 0.25 µg/mL (≈ 0.427 µM)
- MIC (S. aureus ATCC 29213; ATCC29213, read-out: Minimal Inhibitory Concentration (modal value), S. aureus ATCC 29213, Aged Media + Oxyrase, N = 8): 0.25 µg/mL
- MIC (S. aureus ATCC 29213; ATCC29213, read-out: Minimal Inhibitory Concentration (modal value), S. aureus ATCC 29213, Aged media, N = 8): 0.5 µg/mL (≈ 0.854 µM)
- MIC (S. aureus ATCC 29213; ATCC29213, read-out: Minimal Inhibitory Concentration (modal value), S. aureus ATCC 29213, Fresh Media + Oxyrase, N = 8): 0.12 µg/mL
- MIC (S. aureus ATCC 29213; ATCC29213, read-out: Minimal Inhibitory Concentration (modal value), S. aureus ATCC 29213, Freshly Prepared Media, N = 8): 0.25 µg/mL (≈ 0.427 µM)
